Measured values published in patent publication US7691842B2, “Tricyclic 6-alkylidene-penems as β-lactamase inhibitors” (Wyeth LLC, priority 2002, dated 2010).

Legend:
[1] = target: class A β-lactamase TEM-1 (Escherichia coli, UniProt P62593); test: β-Lactamase inhibition, IC50 determination (nitrocefin, spectrophotometric); assay type: biochemical, E. Coli; details: enzyme 4.3 nM; 10 min preincubation at 25° C.; nitrocefin 50 μg/ml; 50 mM PO4, pH 7.0; read-out: IC50 (nM) Class A TEM-1
Method: (§1) IC50 Determination for the Penem Inhibitor
(§2) β-Lactamase inhibitory activity of the penem inhibitors was determined spectrophotometrically as described by Bush et al., [Bush, K., Macalintal, C., Rasmussen, B. A., Lee, V. and Yang, Y. Antimicrobial Agents and Chemotherapy 1993, 37, 851]. Homogeneously purified class A β-lactamases TEM-1 from E. Coli and Imi-1 from Enterobacter cloacae, class B enzyme CcrA from Bacteroides fragilis and class C enzyme AmpC from Enterobacter cloaca were employed in the assay. The enzyme concentrations for TEM-1, Imi-1, CcrA and AmpC were 4.3, 7.1, 1.2 and 2.1 nM, respectively. A wide range of inhibitor concentrations were prepared in 50 mM PO4, pH 7.0 to include the possible IC50 values. The substrate used to initiate the enzyme reaction was nitrocefin at 50 μg/ml in the same buffer as the inhibitor. Initially the enzyme and inhibitor (20 μl each) were preincubated for 10 minutes at 25° C. prior to the addition of 160 μl volume of nitrocefin. Initial rates of hydrolysis were monitored for 5 minutes at 495 nm using a Molecular Devices Spectra Max 250 with kinetic protocol of SoftMax Program. Readings from the Spectra Max 250 were exported and transferred to Microsoft Excel. The percent of inhibition of each inhibitor concentration was calculated based on the control enzyme activity. The inhibitor concentration that caused a 50% reduction in the enzymatic activity (IC50) was determined graphically.

[2] = target: class A β-lactamase Imi-1 (Enterobacter cloacae, UniProt Q46991); test: as above; assay type: biochemical; details: enzyme 7.1 nM; 10 min preincubation at 25° C.; nitrocefin 50 μg/ml; 50 mM PO4, pH 7.0; read-out: IC50 (nM) Class A Imi
Method: as §1, §2

class B enzyme CcrA = class B enzyme CcrA (Bacteroides fragilis, UniProt P25910); test: as above; assay type: biochemical; details: enzyme 1.2 nM; 10 min preincubation at 25° C.; nitrocefin 50 μg/ml; 50 mM PO4, pH 7.0; read-out: IC50 (nM) Class B Ccr
Method: as §1, §2

class C enzyme AmpC = class C enzyme AmpC (Enterobacter cloacae, UniProt P05364); test: biochemical; parameters: species or system Enterobacter cloaca; details: enzyme 2.1 nM; 10 min preincubation at 25° C.; nitrocefin 50 μg/ml; 50 mM PO4, pH 7.0; read-out: IC50 (nM) Class C AmpC
Method: as §1, §2

E. Cloacae GC1477 (Ampc) = test: Antimicrobial susceptibility testing, microbroth dilution MIC of piperacillin + inhibitor; assay type: cell-based; details: piperacillin combined with constant 4 μg/ml inhibitor; Inc: 35° C. for 18 hours
Method: (§3) Antimicrobial susceptibility testing. The in vitro activities of the antibiotics were determined by the microbroth dilution method as recommended by the National Committee for Clinical Laboratory Standards (NCCLS). (NCCLS. 2000. Methods for Dilution Antimicrobial Susceptibility Tests for Bacteria That Grow Aerobically; Approved Standards: M7-A5, vol. 19. National Committee for Clinical Laboratory Standards, Villanova, Pa.). Mueller-Hinton it broth (MHBII)(BBL Cockeysville, Md.), was used for the testing procedure. Microtiter plates containing 50 μl per well of two-fold serial dilutions of piperacillin combined with a constant amount (4 μg/ml) of a B-lactamase inhibitor (final concentration) were inoculated with 50 μl of inoculum to yield the appropriate density (10^5 CFU/ml) in 100 μl. The plates were incubated for 18-22 hours at 35° C. in ambient air.

E. Coli GC2203 = test: as above; assay type: cell-based; details: piperacillin combined with constant 4 μg/ml inhibitor; Inc: 35° C. for 18 hours
Method: as §3

E. Coli GC2844 = test: as above; assay type: cell-based; details: piperacillin combined with constant 4 μg/ml inhibitor; Inc: 35° C. for 18 hours
Method: as §3

E. Coli GC2847 (TEM-1) = test: as above; assay type: cell-based; details: piperacillin combined with constant 4 μg/ml inhibitor; Inc: 35° C. for 18 hours
Method: as §3

E. Coli GC2894 (Ampc) = test: as above; assay type: cell-based; details: piperacillin combined with constant 4 μg/ml inhibitor; Inc: 35° C. for 18 hours
Method: as §3

E. Coli GC2920 (IRT-2) = test: as above; assay type: cell-based; details: piperacillin combined with constant 4 μg/ml inhibitor; Inc: 35° C. for 18 hours
Method: as §3

[3] = system: P. aeruginos GC1764 (Ampc); test: as above; assay type: cell-based; details: piperacillin combined with constant 4 μg/ml inhibitor; Inc: 35° C. for 18 hours
Method: as §3

[4] = system: S. Marcescens GC1781 Sme-1 + Ampc; test: as above; assay type: cell-based; details: piperacillin combined with constant 4 μg/ml inhibitor; Inc: 35° C. for 18 hours
Method: as §3

S. aureus GC2216 = test: as above; assay type: cell-based; details: piperacillin combined with constant 4 μg/ml inhibitor; Inc: 35° C. for 18 hours
Method: as §3

[5] = system: Clinical isolates that have been adapted to cause infection in mice; test: In vivo antibacterial protection (7 day survival of infected mice, ED50); parameters: species or system mice strain CD-1
Source text: In Vivo Antibacterial Protection
Female mice strain CD-1, approximately 18-22 grams, were received from Charles River Laboratories and quarantined 7 days prior to use. In addition, mice may be rendered neutropenic using cytoxan for particular studies.
Clinical isolates that have been adapted to cause infection in mice, are used in the experiment, including infections with strains of E. coli, K. pneumoniae, M. morganii, E. cloacae, S. marcescens, C. freundii, staphylococci, streptococci, P. aeruginosa and N. gonorrhoeae.
Mice are challenged by injecting 0.5 ml intraperitoneally or 0.05 ml intranasally of a predetermined bacterial inoculum suspended in broth, saline or hog gastric mucin (supplemented with dried bovine hemoglobin for N. gonorrhoeae). […] Antibacterial doses (dose concentration prepared by two fold serial dilutions of the antibiotic) are dissolved or suspended in 0.2% aqueous agar or methocel, phosphate buffered saline or an adjuvant are administered orally, subcutaneously or intravenously in the following manner: • a) Orally or subcutaneously: Dose volume of 0.5 ml administered ½ hr after infection. A second dose may be administered 3 hr. after infection for treatment of infections with more virulent organisms. • b) Intravenously: Dose volume of 0.2 ml, administered ½ hr. after infection. For the treatment of infections with more virulent organisms, more doses, up to 48 hr may be administered. (Intravenous dosing will not exceed 3 doses/24 hr period.) • c) Oral pretreatment: Under special circumstances, the pH of the stomach needs to be adjusted in order to increase the gastric stability of the antibiotic. For this purpose, 0.5 ml of phosphate buffered saline (pH7.8, 0.06M) (or specific approved adjuvant) is administered orally ½ hr after infection, followed 5 minutes later by 0.5 ml of antibiotic (also orally) contained in phosphate buffered saline (pH7.8, 0.06M). Animal Species
A detailed explanation as to the number of animals needed for the determination of in vivo efficacy follows: • A) Novel antibiotics are tested at 5 different dose levels with 5 mice per dose level at each of three routes of administration (oral, subcutaneous and intravenous). […] This would require 25 mice/route with 3 routes/antibiotic or 75 mice per novel compound tested. One to two novel antibiotics will be tested per experiment (75-150 mice) • B) The effectiveness of the new compound must be compared to that of a standard, or antibiotic of known effectiveness. Known or previously tested antibiotics are tested at 5 dose levels with 5 mice per dose level by a single route of administration, for a total of 25 mice/antibiotic. Usually 3-6 antibiotics will be tested per experiment. (75-150 mice). • C) Untreated controls—In each of the above tests, untreated animals are infected with 3 different concentrations of bacterial inoculum with 10 mice per concentration (30 mice total in each and every test). These untreated controls are used to determine and maintain the infection level between 10-100 LD50s as required for test to test comparison and validity. Determination of Protective Effects of Antibacterial Agents:
The protective effects of the antibacterial agent(s) are measured by the survival of the infected untreated as compared to the treated animals. For this determination, animals are observed for 7 days after treatment. A census of survivors is taken twice daily and at that time dead as well as moribund animals are removed. The 7 day survival ratio from three separate tests are pooled for estimation of median effective dose (ED50) by computerized program for probit analysis (Cleeland, R. and E. Squires. 1991. Evaluation of New Antimicrobials in Vitro and in Experimental Animal Infections. In Antibiotics in Laboratory Medicine”, 3rd. ed., edited by Victor Lorian. Willams and Wilkins Baltimore, Md. pp. 752-783). […]

[6] = Ratio of Piperacillin Inhibitor 4:1

class B enzyme CcrA, sequence (P25910 19-249): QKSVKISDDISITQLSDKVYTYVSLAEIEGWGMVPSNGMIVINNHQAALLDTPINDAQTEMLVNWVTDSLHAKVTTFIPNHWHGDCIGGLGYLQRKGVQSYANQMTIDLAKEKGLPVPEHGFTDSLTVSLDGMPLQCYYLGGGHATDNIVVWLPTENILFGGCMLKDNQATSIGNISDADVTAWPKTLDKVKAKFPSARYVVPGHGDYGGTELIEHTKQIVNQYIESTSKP
class C enzyme AmpC, sequence (P05364 21-381): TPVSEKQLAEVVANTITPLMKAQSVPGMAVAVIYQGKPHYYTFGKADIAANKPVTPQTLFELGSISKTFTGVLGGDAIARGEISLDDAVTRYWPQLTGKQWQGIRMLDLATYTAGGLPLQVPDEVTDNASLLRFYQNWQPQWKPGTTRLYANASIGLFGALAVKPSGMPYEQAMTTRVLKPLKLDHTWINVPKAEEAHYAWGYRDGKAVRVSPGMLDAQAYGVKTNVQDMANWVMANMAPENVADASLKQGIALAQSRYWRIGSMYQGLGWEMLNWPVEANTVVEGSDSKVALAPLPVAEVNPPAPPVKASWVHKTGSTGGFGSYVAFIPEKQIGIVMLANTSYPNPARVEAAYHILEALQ
class A β-lactamase Imi-1, sequence (Q46991 entry or part of it): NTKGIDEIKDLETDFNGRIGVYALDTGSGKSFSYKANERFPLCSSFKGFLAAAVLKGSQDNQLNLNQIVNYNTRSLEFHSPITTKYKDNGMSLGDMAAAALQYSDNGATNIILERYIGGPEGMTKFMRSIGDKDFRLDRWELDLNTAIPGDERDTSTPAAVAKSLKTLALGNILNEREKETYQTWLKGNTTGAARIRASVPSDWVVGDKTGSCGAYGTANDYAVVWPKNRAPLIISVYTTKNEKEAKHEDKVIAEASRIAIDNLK
class A β-lactamase TEM-1, sequence (P62593 24-286 limits assumed): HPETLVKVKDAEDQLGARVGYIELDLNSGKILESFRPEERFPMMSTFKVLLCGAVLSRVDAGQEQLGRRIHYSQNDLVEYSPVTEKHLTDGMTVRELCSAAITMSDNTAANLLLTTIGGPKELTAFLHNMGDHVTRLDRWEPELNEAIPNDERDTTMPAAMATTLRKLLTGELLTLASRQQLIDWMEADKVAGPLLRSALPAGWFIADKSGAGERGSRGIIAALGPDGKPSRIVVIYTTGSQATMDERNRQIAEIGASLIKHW

Structure (SMILES)	IC50 [1] [nM]	IC50 [2] [nM]	IC50 (class B enzyme CcrA) [nM]	IC50 (class C enzyme AmpC) [nM]	Minimal Inhibitory Concentration E. Cloacae GC1477 (Ampc) (E. Cloacae GC1477 (Ampc)) [µg/mL]	Minimal Inhibitory Concentration E. Coli GC2203 (E. Coli GC2203) [µg/mL]	Minimal Inhibitory Concentration E. Coli GC2844 (E. Coli GC2844) [µg/mL]	Minimal Inhibitory Concentration E. Coli GC2847 (TEM-1) (E. Coli GC2847 (TEM-1)) [µg/mL]	Minimal Inhibitory Concentration E. Coli GC2894 (Ampc) (E. Coli GC2894 (Ampc)) [µg/mL]	Minimal Inhibitory Concentration E. Coli GC2920 (IRT-2) (E. Coli GC2920 (IRT-2)) [µg/mL]	Minimal Inhibitory Concentration P. aeruginos GC1764 (Ampc) [3] [µg/mL]	Minimal Inhibitory Concentration S. Marcescens GC1781 Sme-1 + Ampc [4] [µg/mL]	Minimal Inhibitory Concentration S. aureus GC2216 (S. aureus GC2216)	ED50 [5, 6] [mg/kg]	ED50 ([5]; Ratio of Piperacillin Inhibitor not given) [mg/kg]
O=C(O)C1=CS[C@@H]2/C(=C\c3cn4c(n3)sc3cc(Cl)ccc34)C(=O)N12 [Example 3]	5.6	22	74	3.2	16	1	2	4	2	1	8	1	<0.06 µg/mL	32 to 64	–
O=C(O)C1=CS[C@@H]2/C(=C\c3cn4c5c(sc4n3)CCC5)C(=O)N12 [Example 5, (5R),(6Z)-6-(6,7-dihydro-5H-cyclopenta[d]imidazo[2,1-b][1,3]thiazol-2-ylmethylene)-7-oxo-4-thia-1-azabicyclo[3.2.0]hept-2-ene-2-carboxylic acid]	1.4	–	240	2.1	16	2	2	4	2	2	1	0.5	<0.06 µg/mL	19.5	–
Cc1ccc2c(c1)sc1nc(/C=C3/C(=O)N4C(C(=O)O)=CS[C@H]34)cn12 [Example 7]	2.6	106	103	1.1	32	1	2	4	4	2	16	0.5	<0.06 µg/mL	137	–
O=C(O)C1=CS[C@@H]2/C(=C\c3cn4c5c(sc4n3)COCC5)C(=O)N12 [Example 15, (5R),(6Z)-6-(5,8-dihydro-6H-imidazo[2,1-b]pyrano[4,3-d][1,3]thiazol-2-ylmethylene)-7-oxo-4-thia-1-azabicyclo[3.2.0]hept-2-ene-2-carboxylic acid]	2.8	100	200	1.5	16	2	2	4	2	2	4	1	0.05 µg/mL	–	25
O=C([O-])C1=CS[C@@H]2/C(=C\c3cc4oc5c(n4n3)CCCC5)C(=O)N12.[Na+] [Example 32, (5R,6Z)-7-oxo-6-(5,6,7,8-tetrahydropyrazolo[5,1-b][1,3]benzoxazol-2-ylmethylene)-4-thia-1-1-azabicyclo[3.2.0]hept-2-ene-2-carboxylic acid, sodium salt]	2.6	110	180	5.6	64	2	2	16	32	4	64	2	.05 µg/mL	–	–
